Calls of active or inactive are those of the source. The calls are words filed in the database; no cut-off is given here.
How the values were obtained:
[1] = target: T1, Orexin/Hypocretin receptor type 1 (Homo sapiens, UniProt O43613); assay: Antagonist activity at human OX1R expressed in CHO-K1 cells assessed as inhibition of orexin-A-induced increase in calcium mobilization preincubated for 15 mins followed orexin-A stimulation by Fura-2-AM dye based fluorescence assay; assay type: functional, cell-based
T1 sequence (O43613 whole entry): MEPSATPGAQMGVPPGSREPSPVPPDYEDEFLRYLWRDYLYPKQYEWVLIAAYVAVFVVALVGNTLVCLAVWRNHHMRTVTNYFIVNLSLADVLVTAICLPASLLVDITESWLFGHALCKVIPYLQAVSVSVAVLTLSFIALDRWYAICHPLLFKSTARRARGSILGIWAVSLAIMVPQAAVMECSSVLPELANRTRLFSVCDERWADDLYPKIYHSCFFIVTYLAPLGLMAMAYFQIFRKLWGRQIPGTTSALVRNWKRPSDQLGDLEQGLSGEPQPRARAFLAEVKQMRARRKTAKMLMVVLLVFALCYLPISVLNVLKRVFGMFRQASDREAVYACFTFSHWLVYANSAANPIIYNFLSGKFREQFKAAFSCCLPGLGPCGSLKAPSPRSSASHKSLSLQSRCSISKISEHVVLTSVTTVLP

Orexin receptor type 2 = target: T2, Orexin receptor type 2 (Homo sapiens, UniProt O43614); assay: Antagonist activity at human OX2R expressed in CHO-K1 cells assessed as inhibition of orexin-A-induced increase in calcium mobilization preincubated for 15 mins followed orexin-A stimulation by Fura-2-AM dye based fluorescence assay; assay type: functional, cell-based
T2 sequence (O43614 whole entry): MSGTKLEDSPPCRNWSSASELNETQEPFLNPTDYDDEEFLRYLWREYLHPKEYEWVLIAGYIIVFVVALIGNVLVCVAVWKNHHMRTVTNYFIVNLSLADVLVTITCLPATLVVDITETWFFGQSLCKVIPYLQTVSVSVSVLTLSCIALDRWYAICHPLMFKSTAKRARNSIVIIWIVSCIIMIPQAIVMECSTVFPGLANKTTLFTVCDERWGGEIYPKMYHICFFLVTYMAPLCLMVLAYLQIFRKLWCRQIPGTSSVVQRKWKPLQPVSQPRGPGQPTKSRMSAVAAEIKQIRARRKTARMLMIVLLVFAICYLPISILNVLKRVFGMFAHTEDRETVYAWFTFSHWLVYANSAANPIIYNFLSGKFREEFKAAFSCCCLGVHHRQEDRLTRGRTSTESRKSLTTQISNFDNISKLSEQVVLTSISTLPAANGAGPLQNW

[2] = Drug concentration in C57BL/6J mouse brain at 10 mg/kg, ip measured after 0.5 hrs by LC-MS/MS analysis; assay type: ADME, organism-based; conditions: in vivo
[3] = Metabolic stability in pooled human liver microsomes assessed as half-life […] preincubated for 5 mins followed by NADPH addition and measured upto 60 mins by HPLC-MS/MS analysis; assay type: ADME, Microsome; conditions: time < 65 min
Mus musculus [4] = assay: Sleep inducing activity in C57BL/6J mouse assessed as increase in total time of NREM sleep during dark phase at 10 mg/kg, ip measured at 12 to 18 hrs by EEG/EMG analysis; assay type: functional, organism-based; conditions: time 12-18 hrs
Mus musculus [5] = assay: Sleep inducing activity in C57BL/6J mouse assessed as decrease in total time of wakefulness during dark phase at 10 mg/kg, ip measured at 12 to 18 hrs by EEG/EMG analysis; assay type: functional, organism-based; conditions: time 12-18 hrs
[6] = Apparent permeability across apical to basolateral side in human Caco-2 cells at pH 7.4 in the presence of 1% BSA; assay type: ADME, cell-based; conditions: Caco-2, pH 7.4
[7] = Metabolic stability in pooled human liver microsomes assessed as intrinsic clearance […] preincubated for 5 mins followed by NADPH addition and measured upto 60 mins by HPLC-MS/MS analysis; assay type: ADME, Microsome; conditions: time < 65 min, read-out: CLH
Mus musculus [8] = assay: Effect on locomotor activity in ip dosed ICR mouse assessed as suppression of orexin-induced enhancement of locomotor activity pretreated with compound for 30 mins followed by orexin stimulation by infrared light beam-braking system locomotor recording system; assay type: functional, organism-based; conditions: dose 3-10 mg/kg, DDE = dose-dependent effect
[9] = Passive apparent permeability in MDCK cells; assay type: ADME, cell-based, Canis lupus familiaris; conditions: dog
[10] = Apparent permeability across apical to basolateral side in human Caco-2 cells at pH 7.4; assay type: ADME, cell-based; conditions: Caco-2, pH 7.4

SMILES | Ki [1] | IC50 (Orexin receptor type 2) | Ki (Orexin receptor type 2) | other results
C[C@]1(c2cccc(NC(=O)c3cccnc3)c2)O[C@H]2CO[C@@H]3N2[C@H]1O[C@]3(C)c1cccc(NC(=O)c2cccnc2)c1 | 52 nM | > 10000 nM |  | 
C[C@@]1(c2cccc(NC(=O)c3cccnc3)c2)O[C@H]2CO[C@@H]3N2[C@H]1O[C@@]3(C)c1cccc(NC(=O)c2cccnc2)c1 | 691 nM |  | 261 nM | 
COc1ccc(C(=O)Nc2cccc([C@@]3(C)O[C@@H]4CO[C@H]5N4[C@@H]3O[C@]5(C)c3cccc(NC(=O)c4ccc(OC)cc4)c3)c2)cc1 | 110 nM |  |  | 
CN(C)c1ccccc1C(=O)Nc1cccc([C@]2(C)O[C@H]3CO[C@@H]4N3[C@H]2O[C@@]4(C)c2cccc(NC(=O)c3ccccc3N(C)C)c2)c1 |  | > 10000 nM |  | IC50 [1]: > 10000 nM
CN(C)c1cccc([C@]2(C)O[C@H]3CO[C@@H]4N3[C@H]2O[C@@]4(C)c2cccc(N(C)C)c2)c1 |  |  | 655 nM | IC50 [1]: > 10000 nM
C[C@@]1(c2cccc(NC(=O)c3ccncc3)c2)O[C@H]2CO[C@@H]3N2[C@H]1O[C@@]3(C)c1cccc(NC(=O)c2ccncc2)c1 |  |  | 179 nM | IC50 [1]: > 10000 nM
C[C@]1(c2cccc(NC(=O)c3ccncc3)c2)O[C@H]2CO[C@@H]3N2[C@H]1O[C@]3(C)c1cccc(NC(=O)c2ccncc2)c1 | 104 nM | > 10000 nM |  | 
CC(C)(C)OC(=O)Nc1cccc([C@]2(C)O[C@H]3CO[C@@H]4N3[C@H]2O[C@@]4(C)c2cccc(NC(=O)OC(C)(C)C)c2)c1 | 34.2 nM |  | 180 nM | 
CN(C)c1cccc(C(=O)Nc2cccc([C@]3(C)O[C@H]4CO[C@@H]5N4[C@H]3O[C@@]5(C)c3cccc(NC(=O)c4cccc(N(C)C)c4)c3)c2)c1 |  | > 10000 nM |  | IC50 [1]: > 10000 nM
CN(C)c1ccccc1C(=O)Nc1cccc([C@@]2(C)O[C@H]3CO[C@@H]4N3[C@H]2O[C@]4(C)c2cccc(NC(=O)c3ccccc3N(C)C)c2)c1 | 634 nM | > 10000 nM |  | 
CN(C)c1ccc(C(=O)Nc2cccc([C@]3(C)O[C@H]4CO[C@@H]5N4[C@H]3O[C@@]5(C)c3cccc(NC(=O)c4ccc(N(C)C)cc4)c3)c2)cc1 |  | > 10000 nM |  | IC50 [1]: > 10000 nM
C[C@@]1(c2cccc(NS(=O)(=O)c3ccccc3)c2)O[C@H]2CO[C@@H]3N2[C@H]1O[C@]3(C)c1ccc(NS(=O)(=O)c2ccccc2)cc1 |  |  | 222 nM | IC50 [1]: > 10000 nM

More lines, main results first:

Ki [1] | IC50 (Orexin receptor type 2) | Ki (Orexin receptor type 2) | SMILES | other results
18.3 nM | > 10000 nM |  | C[C@]1(c2cccc(NC(=O)c3ccccn3)c2)O[C@H]2CO[C@@H]3N2[C@H]1O[C@]3(C)c1cccc(NC(=O)c2ccccn2)c1 | 
7.66 nM |  | 5.38 nM | COc1cccc(C(=O)Nc2cccc([C@]3(C)O[C@@H]4N5[C@H](CO[C@H]53)O[C@@]4(C)c3cccc(NC(=O)c4ccccc4)c3)c2)c1 | 
3.99 nM |  |  | COc1ccc(C(=O)Nc2cccc([C@]3(C)O[C@H]4CO[C@@H]5N4[C@H]3O[C@@]5(C)c3cccc(NC(=O)c4ccc(OC)cc4)c3)c2)cc1 | Ct [2]: 54.7 pmol/g; half-life [3]: 38 min; Activity (Mus musculus [4]): Active; Activity (Mus musculus [5]): Active; Papp A→B [6]: 1.4 ×10⁻⁶ cm/s; microsomal CLint [7]: 184 µL/min/mg
4.93 nM |  |  | COc1ccc(C(=O)Nc2cccc(C3(C)OC4COC5N4C3OC5(C)c3cccc(NC(=O)c4ccc(OC)cc4)c3)c2)cc1 (racemic) | 
2.86 nM | > 10000 nM |  | COc1cccc(C(=O)Nc2cccc([C@@]3(C)O[C@H]4CO[C@@H]5N4[C@H]3O[C@]5(C)c3cccc(NC(=O)c4cccc(OC)c4)c3)c2)c1 | 
2.17 nM |  |  | COc1ccc(C(=O)Nc2cccc([C@]3(C)O[C@@H]4CO[C@H]5N4[C@@H]3O[C@@]5(C)c3cccc(NC(=O)c4ccc(OC)cc4)c3)c2)cc1 | 
1.87 nM |  |  | COc1ccc(C(=O)Nc2cccc([C@@]3(C)O[C@H]4CO[C@@H]5N4[C@H]3O[C@]5(C)c3cccc(NC(=O)c4ccc(OC)cc4)c3)c2)cc1 | Ct [2]: 33.9 pmol/g; half-life [3]: 39 min; Activity (Mus musculus [8]): Dde; Papp [9]: > 10 ×10⁻⁶ cm/s; Papp A→B [10]: 11.9 ×10⁻⁶ cm/s; microsomal CLint [7]: 183 µL/min/mg
3.88 nM | > 10000 nM |  | CN(C)c1ccc(C(=O)Nc2cccc([C@@]3(C)O[C@H]4CO[C@@H]5N4[C@H]3O[C@]5(C)c3cccc(NC(=O)c4ccc(N(C)C)cc4)c3)c2)cc1 | 
7.85 nM | > 10000 nM |  | CN(C)c1cccc(C(=O)Nc2cccc([C@@]3(C)O[C@H]4CO[C@@H]5N4[C@H]3O[C@]5(C)c3cccc(NC(=O)c4cccc(N(C)C)c4)c3)c2)c1 | 
14.9 nM |  | 69.6 nM | C[C@@]1(c2cccc(NC(=O)c3ccccn3)c2)O[C@H]2CO[C@@H]3N2[C@H]1O[C@@]3(C)c1cccc(NC(=O)c2ccccn2)c1 | 
23.4 nM |  | 15.1 nM | C[C@@]1(c2cccc(NC(=O)c3ccccc3)c2)O[C@H]2CO[C@@H]3N2[C@H]1O[C@@]3(C)c1cccc(NC(=O)c2ccccc2)c1 | 
25.4 nM | > 10000 nM |  | C[C@]1(c2cccc(NC(=O)c3ccccc3)c2)O[C@H]2CO[C@@H]3N2[C@H]1O[C@]3(C)c1cccc(NC(=O)c2ccccc2)c1 | 
32.8 nM |  |  | COc1cccc(C(=O)Nc2cccc([C@@]3(C)O[C@H]4CO[C@@H]5N4[C@H]3O[C@]5(C)c3cccc(NC(=O)c4ccccc4OC)c3)c2)c1 | 
18 nM |  | 56 nM | COc1ccccc1C(=O)Nc1cccc([C@]2(C)O[C@@H]3N4[C@H](CO[C@H]42)O[C@@]3(C)c2cccc(NC(=O)c3ccccc3)c2)c1 | 
11.7 nM |  |  | COc1ccc(C(=O)Nc2cccc(C3(C)OC4COC5N4C3OC5(C)c3cccc(NC(=O)c4ccc(OC)cc4)c3)c2)cc1 (mixture of isomers) | 
